We go through one compound from ChEMBL document CHEMBL3769311, “The natural flavone fukugetin as a mixed-type inhibitor for human tissue kallikreins” (Bioorg Med Chem Lett, 2016).

Assay [1] has as its target T1, Kallikrein-2 (Homo sapiens, UniProt P20151).
T1 sequence (P20151 whole entry): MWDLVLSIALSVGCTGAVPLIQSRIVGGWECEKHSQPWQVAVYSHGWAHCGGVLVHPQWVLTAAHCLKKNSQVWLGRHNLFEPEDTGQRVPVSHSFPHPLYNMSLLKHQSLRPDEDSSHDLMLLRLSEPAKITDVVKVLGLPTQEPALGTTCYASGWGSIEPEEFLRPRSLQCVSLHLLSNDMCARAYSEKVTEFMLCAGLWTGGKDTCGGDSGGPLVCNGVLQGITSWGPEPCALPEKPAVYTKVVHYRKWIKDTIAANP
As to the kind of experiment: Mixed-type inhibition of human tissue kallikrein-2 expressed in baculovirus infected insect cells using Abz-KLRSSQ-EDDnp as substrate preincubated for 10 mins followed by substrate addition by Lineweaver-Burk plot analysis.

Assay [2] has as its target T2, Kallikrein-1 (Homo sapiens, UniProt P06870). In words: Inhibition of human tissue kallikrein-1 expressed in baculovirus infected insect cells using Abz-KLRSSQ-EDDnp as substrate preincubated for 10 mins followed by substrate addition by FRET assay.
The target of assay [3] is T1, Kallikrein-2. In words: Inhibition of human tissue kallikrein-2 expressed in baculovirus infected insect cells using Abz-KLRSSQ-EDDnp as substrate preincubated for 10 mins followed by substrate addition by FRET assay.
The target of assay [4] is T3, Prostate-specific antigen (Homo sapiens, UniProt P07288).
T3 sequence (P07288 whole entry): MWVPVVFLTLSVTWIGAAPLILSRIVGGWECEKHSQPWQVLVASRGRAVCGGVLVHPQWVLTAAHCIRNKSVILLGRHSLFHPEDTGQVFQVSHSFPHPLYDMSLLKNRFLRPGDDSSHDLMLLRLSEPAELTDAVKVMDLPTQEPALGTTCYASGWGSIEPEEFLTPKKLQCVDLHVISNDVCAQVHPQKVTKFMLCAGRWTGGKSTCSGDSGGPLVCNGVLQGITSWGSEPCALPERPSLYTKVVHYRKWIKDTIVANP
In words: Inhibition of human tissue kallikrein-3 expressed in baculovirus infected insect cells using Abz-KLYSSQ-EDDnp as substrate preincubated for 10 mins followed by substrate addition by FRET assay.

For another assay, the target named is T4, Kallikrein-5 (Homo sapiens, UniProt Q9Y337).
T4 sequence (Q9Y337 whole entry): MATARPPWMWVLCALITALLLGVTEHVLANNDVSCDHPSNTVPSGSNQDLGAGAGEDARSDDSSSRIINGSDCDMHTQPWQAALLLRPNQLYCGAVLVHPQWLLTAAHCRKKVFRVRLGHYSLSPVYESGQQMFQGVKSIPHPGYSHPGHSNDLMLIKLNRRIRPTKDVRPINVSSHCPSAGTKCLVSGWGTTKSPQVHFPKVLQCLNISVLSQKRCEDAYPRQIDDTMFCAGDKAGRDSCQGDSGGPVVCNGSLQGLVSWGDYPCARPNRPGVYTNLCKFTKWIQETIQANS
In words: Inhibition of human tissue kallikrein-5 expressed in baculovirus infected insect cells using Abz-KLRSSQ-EDDnp as substrate preincubated for 10 mins followed by substrate addition by FRET assay.

In the next assay the target is Kallikrein-6 (Homo sapiens, UniProt Q92876). As to the kind of experiment: Inhibition of human tissue kallikrein-6 expressed in baculovirus infected insect cells using Abz-KLRSSQ-EDDnp as substrate preincubated for 10 mins followed by substrate addition by FRET assay.
For another assay, the target named is Kallikrein-7 (Homo sapiens, UniProt P49862). As to the kind of experiment: Inhibition of human tissue kallikrein-7 expressed in baculovirus infected insect cells using Abz-KLYSSQ-EDDnp as substrate preincubated for 10 mins followed by substrate addition by FRET assay.
Sequence of Kallikrein-7 (P49862 whole entry): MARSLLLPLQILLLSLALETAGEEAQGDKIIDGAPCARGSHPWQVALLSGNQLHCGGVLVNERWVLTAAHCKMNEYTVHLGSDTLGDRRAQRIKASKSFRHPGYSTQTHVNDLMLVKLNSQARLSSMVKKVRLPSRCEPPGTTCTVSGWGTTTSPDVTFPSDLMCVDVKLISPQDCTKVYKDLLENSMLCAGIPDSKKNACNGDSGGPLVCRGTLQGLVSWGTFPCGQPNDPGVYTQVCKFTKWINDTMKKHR
In assay [5] the target is T2, Kallikrein-1. As to the kind of experiment: Mixed-type inhibition of human tissue kallikrein-1 expressed in baculovirus infected insect cells using Abz-KLRSSQ-EDDnp as substrate preincubated for 10 mins followed by substrate addition by Lineweaver-Burk plot analysis.

pIC50, pKi: −log10 of the molar value.

T2 sequence (P06870 whole entry): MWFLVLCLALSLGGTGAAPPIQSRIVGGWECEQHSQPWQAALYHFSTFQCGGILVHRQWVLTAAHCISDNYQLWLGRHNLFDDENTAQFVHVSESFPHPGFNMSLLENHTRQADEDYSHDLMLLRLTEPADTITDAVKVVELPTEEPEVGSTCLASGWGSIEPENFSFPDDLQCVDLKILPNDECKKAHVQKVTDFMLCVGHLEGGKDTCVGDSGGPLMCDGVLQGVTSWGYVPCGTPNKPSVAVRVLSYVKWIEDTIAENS

As to `O=C1CC(c2ccc(O)c(O)c2)Oc2c1c(O)cc(O)c2[C@@H]1C(=O)c2c(O)cc(O)cc2O[C@H]1c1ccc(O)cc1` (stereo partly drawn) [FUKUGETIN], the results for the pKi at Kallikrein-2 [1] and on Kallikrein-1 [5] were 5.80 and 5.44, respectively. Besides, the pIC50 is 5.24 against Kallikrein-1 [2]; 5.49 on Kallikrein-2 [3]; 4.89 in assay [4]; 4.90 at Kallikrein-5; 4.87 against Kallikrein-6; 4.82 at Kallikrein-7.
